This assay concerns 3T3-L1 preadipocytes. Description: Preadipocyte proliferation (mitogenic assay). Format: cell-based, murine. An excerpt:
To mimic stress-released NPY in vitro, conditioned media from, or coculture with, neuroblastoma SKNBE cells (a model of sympathetic neurons which release 0.1 pM NPY) is used to treat endothelial cells and 3T3-L1 preadipocytes. Both cell lines express all NPYRs but lack NPY (confirmed by RT-PCR and IHC, FIG. […] 6). […] When 3T3-L1 preadipocytes are cocultured with HMVEC, there is no significant mitogenic response between treated and untreated cells.
Co-culture: For mitogenic assay and expression studies, co-culture is performed in a Costar Transwell system. Cells are plated on the 6-well plates and the inserts with 0.4 μm Polyester membranes. After they reach 30% confluence, the inserts are placed into plates with other cells. Co-culture of neuroblastomas/SCG neurons with aECs are carried out in EC media and with preadipocytes—in preadipocyte growth media. […] After 48 h, the cells are counted with a coulter counter. […]
Mitogenic assays: 3T3-L1 pre-adipocytes are allowed to grow to 30% confluency before serum-starving the cells. […] Proliferation is determined by cell counting using a coulter counter (Beckman Coulter, Miami, Fla.). […] After 24 h, cells are harvested in a 96-well harvester (Tomtec) and counted in a Betaplate Liquid Scintillation Counter (Wallac).
1. […] After 24 h, cells were harvested in a 96-well harvester (Tomtec) and counted in a Betaplate Liquid Scintillation Counter (Wallac). […]

In the case of `N=C(N)NCCC[C@H](NC(=O)CC1(CC(=O)N2CCN(C3c4ccccc4NC(=O)c4ccccc43)CC2)CCCC1)C(=O)NCCn1c(=O)n(-c2ccccc2)n(-c2ccccc2)c1=O` (some centres unmarked) [BIIE0246], under “BIIE0246 1 μM”, the “block of NPY- and neuroblastoma-conditioned media-stimulated preadipocyte proliferation” value is listed as “blocked”.

Regarding neuropeptide Y [NPY], under “NPY treatment of 3T3-L1 preadipocytes”, the preadipocyte proliferation entry is reported as “stimulated”.

Values taken from US20090317376A1, “Compositions And Methods For Lipo Modeling” (Georgetown University MEDICAL SCHOOL, priority 2005, published 2009).
